In PubChem BioAssay (NCI):
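Values below derive from 48-hour exposures of cells grown in 96-well plates, with endpoints linearly interpolated between the two concentrations bracketing the appropriate inhibition level. TGI denotes the concentration required for complete inhibition of growth.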

What was measured:
Test in all cases: DTP human tumour cell line panel, 48 h
RXF 393 renal = system: RXF 393 renal
CAKI-1 renal = system: CAKI-1 renal
A498 renal = system: A498 renal
EKVX NSCLC = system: EKVX NSCLC
NCI-H226 lung = system: NCI-H226 lung
UO-31 renal = system: UO-31 renal
786-0 renal = system: 786-0 renal

SMILES	TGI (RXF 393 renal) [µM]	TGI (CAKI-1 renal) [µM]	TGI (A498 renal) [µM]	TGI (EKVX NSCLC) [µM]	TGI (NCI-H226 lung) [µM]	TGI (UO-31 renal) [µM]	TGI (786-0 renal) [µM]
OCC(O)COc1c(Cl)ccc(Cl)c1Cl (configuration not stated)	> 100	> 100	> 100	> 100	> 100	> 100	> 100
Fc1ccc(F)c(C2SCc3nc4ccccc4n32)c1 (configuration not stated)	> 100	> 100	> 100	> 100	> 100	> 100	> 100
COc1ccc(/C=C/c2nc(=S)[nH][nH]2)cc1	> 100	> 100	> 100	> 100	> 100	> 100	> 100
N#CCC(=O)N/N=C1/C(=O)NC(=O)C(=O)C1c1nc2ccccc2s1 (configuration not stated)	> 100	> 100	> 100	> 100	> 100	> 100	> 100
COc1ccc(CCNCc2cccc(OC)c2OC)cc1OC	> 100	> 100		> 100		> 100	> 100
CC(C)CC(CNC(Cc1ccc(Cl)cc1)C(N)=O)NC(=O)C(Cc1cnc[nH]1)NC(=O)CNC(=O)C(NC(=O)C(C)NC(=O)C(Cc1c[nH]c2ccccc12)NC(=O)C(CCC(=O)O)NC(=O)C(N)Cc1ccccc1)C(C)C (configuration not stated)	> 133	> 133	> 133	> 133		> 133	> 133
CC(=O)OCC(OC(C)=O)C(OC(C)=O)C(OC(C)=O)C(=O)CNn1c(-c2ccccc2)nc2ccc(Br)cc2c1=O (configuration not stated)	> 100	> 100	> 100	> 100	> 100	> 100	> 100
O=C(CCc1ccccc1)On1nnc2ccccc2c1=O	> 100	> 100	> 100	> 100	> 100	> 100	> 100
O=C(CCC(=O)N/N=C/c1ccccc1O)N/N=C/c1ccccc1O	44.4	> 100		56.4	> 100	> 100	> 100
O=C1OC(c2ccccc2)=N/C1=C\c1c(O)cc(O)cc1O	> 100	> 100	> 100	> 100		> 100	> 100
Cc1cccc2c1Oc1cc(Cl)ccc1C2NC(=O)CN(C)C (configuration not stated)	87.8			> 100	> 100	> 100	41.4
Cc1[nH]c(=O)nc(CC(O)(c2ccccc2)c2ccccc2)c1-c1ccccc1	> 100	> 100	> 100	> 100	> 100	> 100	> 100
COC1(OC)CC2C(=O)N(Cc3ccccc3)C1CC2S(=O)(=O)c1ccccc1 (configuration not stated)	> 100			> 100	> 100	> 100	> 100
CCc1ccccc1-n1c2nc(=O)n(C)c(=O)c-2nc2ccccc21	30	49.3	32.5	24.6	36.4	48.2	30.5
CCOC(=O)CC1=NC(=Nc2cc(Cl)ccc2Cl)SC1	> 100	> 100	> 100	> 100	> 100	> 100	> 100
O=C(N/C(=C\c1ccc(Br)cc1)c1nc2ccccc2s1)c1ccccc1	> 100	> 100	> 100	> 100	> 100	> 100	> 100
COC(=O)C1=C(c2cc(OC)c(OC)c(OC)c2)OC(c2cc(OC)c(OC)c(OC)c2)C1COC(C)=O (configuration not stated)	> 100	> 100	> 100	> 100	> 100	> 100	> 100
CN(/N=C/c1ccnc2ccccc12)c1ccc([N+](=O)[O-])cc1[N+](=O)[O-]	> 100	> 100	> 100	> 100	> 100	> 100	74.6
O=C(CCCNC(=O)OCc1ccccc1)OCc1ccc2c(c1)C(=O)c1ccccc1C2=O	48.5	> 89.6	> 100	> 100	42.6	> 100	> 56.2
CCc1ccc(/C(C)=N/NC(N)=S)cc1	> 100	> 100		> 100		> 100	> 100
NS(=O)(=O)c1ccc(NC(=O)CC(=O)Nc2ccc(S(N)(=O)=O)cc2)cc1		> 100	> 100	> 100	> 100	> 100	> 100
O=C(/C=C/c1c(O)ccc2ccccc12)c1cccc2ccccc12	> 100	> 100	> 100	> 100	> 100	> 100	> 100
